Values joined by “and” are separate entries in the source; they are usually repeats but may differ in a detail not shown here. Identical values can stand only once. Like-named read-outs stand apart in the source and are kept apart here.
Key:
Type in all cases: cell-based
[1] = system: PDGF-stimulated PDGFR tyrosine phosphorylation; experiment: Inhibition of PDGF-stimulated PDGFR tyrosine phosphorylation in NIH 3T3 cells (anti-phosphotyrosine Western blot); details: 5 min pretreatment, PDGF 10 ng/ml 10 min, read-out: (IC50) Inhibition PDGFR-Y-P
Experimental: Starved NIH 3T3 cells are pretreated with various growth factor binding agents (0-100 μM) for 5 min before stimulation with PDGF (10 ng/mL) for 10 min. The cells are then harvested and lysed, and the proteins from the lysates separated by SDS-PAGE and immunoblotted with an anti-phosphotyrosine antibody (4G10: Upstate Biotechnology, Lake Placid, N.Y.). The phosphotyrosine PDGF receptor bands are scanned, and the concentrations of growth factor binding molecules that inhibited the ability of PDGF to stimulate PDGFR tyrosine phosphorylation by 50% are determined.
(§1) Starved NIII 3T3 cells (PDGF-BB and PDGF-AA), NIH 3T3 cells overexpressing either EGFR (EGF) or Flk-1 (VEGF) are pre-treated with the indicated concentrations of GFB-111 for 5 minutes before 10 minutes of stimulation with PDGF-BB (10 ng/ml), PDGF-AA (10 ng/ml), EGF (100 ng/ml) and VEGF (50 ng/ml). Cell lysates are run on SDS-PAGE gels, then transferred to nitrocellulose and Western blotted with anti-phosphotyrosine (4G 10) or anti-phosphorylated Erk1/Erk2 (New England Biolabs).
A novel series of protein surface binding agents are prepared that bind PDGF and disrupt its signaling function. The molecules are composed of a central calix[4] arene scaffold to which is attached four peptide loop domains (FIG. 1). The peptide loop component is based on a cyclic hexapeptide in which two residues are replaced by a 3-aminomethylbenzoate dipeptide mimetic containing a 5-amino substituent for attachment to the scaffold. The resulting molecules (as shown in Table 1) contain a functionalized and variable surface approximately 500 Å^2 in area. Several peptide loop sequences are synthesized (Table 1) to provide molecular surfaces with negatively and positively charged as well as hydrophobic regions designed to bind to complementary areas on the target growth factor. To identify PDGF binding molecules from this library, a cell-based screening assay is developed with NIH 3T3 cells to detect molecules capable of blocking PDGF-BB-induced tyrosine autophosphorylation of the PDGF receptor. The ability of the identified molecules to bind PDGF-BB and inhibit interaction with its receptor is then confirmed biochemically. Starved NIH 3T3 cells are pretreated for 5 min with the synthetic molecules prior to stimulation with PDGF for 10 min. The effects of the molecules on PDGF-stimulated receptor tyrosine phosphorylation are determined by the antiphosphotyrosine Western blotting as described in Table 1. […] GFB-111 has four-fold symmetry containing 4 identical peptide loops with negative and hydrophobic residues, GlyAspGlyTyr (GDGY) (SEQ ID NO. 6), that are designed to be complementary to the PDGF surface involved in binding to PDGFR. The area of PDGF-BB that binds PDGFR is composed primarily of positive and hydrophobic residues.
Starved NIH 3T3 cells are pretreated with the various GFBs (0-100 μM) for 5 min. prior to stimulation with PDGF (10 ng/ml) for 10 min. The cells are then harvested lysed and the proteins from the lysates are separated by SDS-PAGE and immunoblotted with an anti-phosphotyrosine antibody (4G10, Upstate Biotechnology, Lake Placid, N.Y.). The phosphotyrosine PDGF receptor bands are scanned and the concentrations of GFBs that inhibit the ability of PDGF to stimulate PDGFR tyrosine phosphorylation by 50% are determined. Data for each compound is representative of at least two independent experiments. FIG. 1 illustrates the structure of growth factor binders. GFBs are synthesized as described by Park, H. D. et al., Protein surface recognition by synthetic receptors: A route to novel sub-micromolar inhibitors for chymotrypsin. J. Am. Chem. Soc. 121, 8-13 (1999); and Hamuro, Y. et al., A calixarene with four peptide loops: An antibody mimic for recognition of protein surfaces. Angew. Chemie Int. Ed. Engl. 36, 2680-2683 (1997), each herein incorporated by reference in its respective entirety.

[2] = system: PDGF-stimulated Erk1/Erk2 activation; experiment: Inhibition of PDGF-stimulated activation of MAPK Erk1/Erk2 (p44/p42) in NIH 3T3 cells; details: NIH 3T3, PDGF stimulated
Experimental: as §1
(§2) In other experiments, starved NIH 3T3 cells (PDGF-AA, PDGF-BB, aFGF, bFGF), NIH 3T3 cells overexpressing EGFR. IGF-1R or Flk-1 and the human breast carcinoma SkBr3 that overexpresses ErbB2 (HRGβ) are pretreated with GFB-111 (100 μM) for 5 min before 10 min stimulation with the indicated growth factors at the concentrations shown above and aFGF (10 ng/ml), bFGF (50 ng/ml), IGF-1 (50 ng/ml) and HRGβ (10 ng/ml). Cell lysates are then immunoblotted with anti-phospho Erk1/Erk2 as described above.

[3] = system: IGF-1 stimulated IGF-1R tyrosine phosphorylation; experiment: Inhibition of IGF-1 stimulated IGFR tyrosine phosphorylation in IGFR/3T3 cells; details: for % Inhibition at 100 μM IGF1R-Y-P: IGFR/3T3, IGF-1 stimulated
Experimental: (§3) The ability of the GFB library to block the ability of IGF-1 to stimulate the IFG-1 R tyrosine phosphorylation and MAP kinase activation is evaluated using the cell assay described above with IGF-1R/3T3 cells as target cell. […] A preferred embodiment of the invention is a compound that binds to an insulin-like growth factor-1, of the general structure III, wherein R is n-butyl, n-propyl, or benzyl, and X1, X2, X3, and X4 optionally comprise identical cyclic peptide loops of the general structure II, and wherein R1, R2, R3, and R4 are each amino acid side chains that define a tetrapeptide sequence, wherein said tetrapeptide is covalently attached at the amino and carboxy termini of said tetrapeptide to a 3-aminomethyl-5-aminobenzamide linking group.

[4] = system: IGF-1 stimulated MAP kinase activation; experiment: Inhibition of IGF-1 stimulated MAP kinase (p42/p44) activation in IGFR/3T3 cells; details: 100 μM; IGFR/3T3, IGF-1 stimulated
Experimental: as §2, §3

[5] = system: aFGF-stimulated MAP kinase activation of p42 and p44; experiment: Inhibition of aFGF stimulation of p42/p44 MAP kinase in NIH 3T3 cells; details: NIH 3T3
Experimental: as §2
The ability of growth factor binding agents in the library of growth factor binding agents to block an aFGF signal is measured by aFGF-stimulation of MAP kinase activation of p42 and p44 essentially as described above for VEGF. NIH 3T3 cells are used as the target cell. […] A preferred embodiment of the invention is a compound that binds to acidic fibroblast growth factor, of the general structure III, in which R is n-butyl, n-propyl, or benzyl, and X1, X2, X3, and X4 optionally comprise covalently attached cyclic peptide loops of the general structure II, wherein R1, R2, R3, and R4 are each amino acid side chains that define a tetrapeptide sequence, wherein said tetrapeptide is covalently attached at the amino and carboxy termini of said tetrapeptide to a 3-aminomethyl-5-aminobenzamide linking group, and wherein said tetrapeptide sequence is as given, for example, in Table 5.

[6] = system: VEGF-stimulated Flk-1 tyrosine phosphorylation; experiment: Inhibition of VEGF-stimulated Flk-1 tyrosine phosphorylation in Flk-1/3T3 cells; details: Flk-1/3T3, VEGF stimulated; read-out: (IC50) Inhibition Flk-1-Y-P
Experimental: as §1
(§4) In order to identify molecules that would bind vascular endothelial growth factor (VEGF), Flk-1/3T3 cell-based assay is used that relies on VEGF-stimulation of its receptor, Flk-1, tyrosine phosphorylation and subsequent MAP-kinase activation. The assay used herein identical to that used for PDGF, except that NIH 3T3 cells that overexpress Flk-1 are used. GFB-116, which has four identical loops with the sequence GKGK (SEQ ID NO. 10) is shown to be very potent and selective toward blocking the ability of VEGF to stimulate Flk-1 tyrosine phosphorylation and subsequent MAP-kinase activation as measured by phospho erk-1 and erk-2 also referred to in the Table as p42 and p44 (Table 4A). A preferred embodiment of the invention is a compound that binds to a vascular endothelial growth factor, of the general structure III (above) in which R is n-butyl, n-propyl, or benzyl, and X comprise covalently attached identical cyclic peptide loops wherein R1, R2, R3, and R4 are each amino acid side chains, as broadly defined above, that define a tetrapeptide sequence, wherein said tetrapeptide is covalently attached at the amino and carboxy termini of said tetrapeptide to 3-aminomethyl-5-aminobenzamide linking group, and wherein said tetrapeptide sequence is GKGK (SEQ ID NO. 10), GDGY (SEQ ID NO. 6), or functionally related derivatives thereof.

[7] = system: VEGF-stimulated MAP kinase activation; experiment: Inhibition of VEGF-stimulated MAP kinase (p42/p44, Erk2/Erk1) activation in Flk-1/3T3 cells; details: Flk-1/3T3, VEGF stimulated
Experimental: as §1, §2, §4

[8] = system: EGF-stimulated EGFR tyrosine phosphorylation and Erk1/Erk2 activation; experiment: EGF-stimulated EGFR tyrosine phosphorylation and Erk1/Erk2 activation in NIH 3T3 cells overexpressing EGFR; details: GFB-111 at concentrations as high as 100 μM
Experimental: as §1

[9] = head p42/Erk2 (p42 for GFB-132 to 137), read-out: (IC50) Inhibition p42/Erk2
[10] = read-out: (IC50) Inhibition p42
[11] = read-out: (IC50) Inhibition p44

Compound | IC50 [1] [µM] | IC50 [2, 9] [µM] | % Inhibition at 100 μM IGF1R-Y-P [3] | Blocking IGF-1 action ([3]; IGF-1R/3T3 cells) | % Inhibition at 100 μM p42 [4] | % Inhibition at 100 μM p44 [4] | Block of aFGF-stimulation of MAP kinase activation of p42 and p44 [5] | IC50 [6] [µM] | IC50 [7, 10] [µM] | IC50 [7, 11] [µM] | IC50 [2, 11] [µM] | Effect on EGF-stimulated EGFR tyrosine phosphorylation and Erk1/Erk2 activation [8]
GDDG [GFB-126] | 1.9 | 4.6 | 51.7% and 51.0% | particularly effective | 63.9% and 47.0% | 71.2% and 79.2% | very effective |  |  |  |  | 
ADGD [GFB-112] | 29 | 26 | 0.6% |  | −7.6% | 30.4% |  | < 10 | 10 | 10 |  | 
GDGY [GFB-133] | 0.8 | 3.2 |  |  |  |  | very effective |  |  |  | 3 | 
GDSD [GFB-113] | 2.8 | 30 | −18.9% |  | −31.4% | 18.7% |  | < 10 | 10 | 10 |  | 
CNc1cc2c(Nc3cccc(Br)c3)ncnc2cn1 [PD158780, reference compound] |  |  |  |  |  |  |  |  |  |  |  | blocks
GDDG [GFB-127] | 32 | > 50 | 36.8% and 31.8% |  | 38.4% and 27.2% | 61.6% and 74.4% | very effective |  |  |  |  | 
GDFD [GFB-105] | 2.4 | 28 | 1.3% |  |  |  |  | < 10 | > 100 | > 100 |  | 
GDDD [GFB-106] | 8 | 33 |  |  |  |  | very effective | < 10 | < 10 | < 10 |  | 

From US8361970B2, “Growth factor binding molecules” (University of South Florida, priority 2000, dated 2013)
